ChEMBL document CHEMBL4732119, “Design, synthesis and pharmacological evaluation of bicyclic and tetracyclic pyridopyrimidinone analogues as new KRAS inhibitors” (Eur J Med Chem, 2021)

Legend:
A549 [1] = experiment: Antiproliferative activity against human A549 cells harboring KRAS G12S mutant assessed as growth inhibition at 1 uM measured after 72 hrs by SRB assay relative to control; type: functional; conditions: for inhibition of growth at 1 µM: Homo sapiens, A549, read-out: GI
MIA PaCa-2 [2] = experiment: Antiproliferative activity against human MIA PaCa-2 cells harboring KRAS G12C mutant assessed as growth inhibition at 10 uM measured after 72 hrs by CCK8 assay relative to control; type: functional; conditions: for inhibition of growth at 10 µM: Homo sapiens, MIA PaCa-2, read-out: GI
A549 [3] = experiment: Antiproliferative activity against human A549 cells harboring KRAS G12S mutant assessed as growth inhibition at 0.1 uM measured after 72 hrs by SRB assay relative to control; type: functional; conditions: for inhibition of growth at 0.1 µM: Homo sapiens, A549, read-out: GI
MIA PaCa-2 [4] = experiment: Antiproliferative activity against human MIA PaCa-2 cells harboring KRAS G12C mutant assessed as growth inhibition at 1 uM measured after 72 hrs by CCK8 assay relative to control; type: functional; conditions: for inhibition of growth at 1 µM: Homo sapiens, MIA PaCa-2, read-out: GI
MIA PaCa-2 [5] = experiment: Antiproliferative activity against human MIA PaCa-2 cells harboring KRAS G12C mutant assessed as growth inhibition at 0.1 uM measured after 72 hrs by CCK8 assay relative to control; type: functional; conditions: for inhibition of growth at 0.1 µM: Homo sapiens, MIA PaCa-2, read-out: GI
A549 [6] = experiment: Antiproliferative activity against human A549 cells harboring KRAS G12S mutant assessed as growth inhibition at 10 uM measured after 72 hrs by SRB assay relative to control; type: functional; conditions: for inhibition of growth at 10 µM: Homo sapiens, A549, read-out: GI
[7] = Inhibition of recombinant human N-terminal polyHis-tagged KRAS isoform 2B G12C mutant (Thr2 to Cys185 residues) expressed in Escherichia coli using GTP as substrate measured after 2 hrs by GTPase-glo assay
NCI-H1975 = experiment: Antiproliferative activity against human NCI-H1975 cells harboring wild-type KRAS assessed as growth inhibition measured after 72 hrs by SRB assay; type: functional, cell-based; conditions: NCI-H1975, 72 h
NCI-H358 = experiment: Antiproliferative activity against human NCI-H358 cells harboring KRAS G12C mutant assessed as growth inhibition measured after 72 hrs by SRB assay; type: functional, cell-based; conditions: Homo sapiens, NCI-H358, 72 h
A549 [8] = experiment: Antiproliferative activity against human A549 cells harboring KRAS G12S mutant assessed as growth inhibition measured after 72 hrs by SRB assay; type: functional, cell-based; conditions: A549, 72 h
MIA PaCa-2 [9] = experiment: Antiproliferative activity against human MIA PaCa-2 cells harboring KRAS G12C mutant assessed as growth inhibition measured after 72 hrs by CCK8 assay; type: functional, cell-based; conditions: Homo sapiens, MIA PaCa-2, 72 h
GTPase KRas = GTPase KRas (Homo sapiens, UniProt P01116); experiment: Inhibition of recombinant human N-terminal His-tagged KRAS (2 to 185 residues) expressed in baculovirus infected Sf9 insect cells using GTP as substrate measured after 2 hrs by GTPase-glo assay

| Structure (SMILES) | inhibition of growth at 1 µM (A549 [1]) [%] | inhibition of growth at 10 µM (MIA PaCa-2 [2]) [%] | inhibition of growth at 0.1 µM (A549 [3]) [%] | inhibition of growth at 1 µM (MIA PaCa-2 [4]) [%] | inhibition of growth at 0.1 µM (MIA PaCa-2 [5]) [%] | inhibition of growth at 10 µM (A549 [6]) [%] | further results |
| --- | --- | --- | --- | --- | --- | --- | --- |
| C=CC(=O)N1CCN(c2nc(=O)n(-c3c(C)ccnc3C(C)C)c3nc4c(cc23)oc2cccc(O)c24)[C@@H](C)C1 | 35.3 | 9.78 | 32.8 | 1.71 | 1.41 | 23.1 | – |
| C=CC(=O)N1CCN(c2nc(=O)n(-c3c(C)ccnc3C(C)C)c3nc(-c4c(O)cccc4F)c(F)cc23)[C@@H](C)C1 [SOTORASIB] | – | – | – | – | – | – | IC50 [7]: 1.27 µM; growth inhibition (GI) (A549 [1]): 5.81%; growth inhibition (GI) (MIA PaCa-2 [2]): 59.49%; IC50 (NCI-H1975): > 10 µM; growth inhibition (GI) (A549 [3]): 4.13%; IC50 (NCI-H358): < 0.016 µM; growth inhibition (GI) (MIA PaCa-2 [4]): 64.63%; IC50 (A549 [8]): > 10 µM; growth inhibition (GI) (MIA PaCa-2 [5]): 49.49%; IC50 (MIA PaCa-2 [9]): 0.029 µM; growth inhibition (GI) (A549 [6]): 24.09% |
| Cc1ccnc(C(C)C)c1-n1c(=O)nc(N2CCN(C(=O)/C=C/CN(C)C)C[C@@H]2C)c2cc3oc4cccc(F)c4c3nc21 | 2.99 | 32 | 7.85 | 14.9 | 1.88 | 2.64 | – |
| C=CC(=O)N1CCN(c2nc(=O)n(-c3c(C)ccnc3C(C)C)c3nc(-c4c(O)cccc4F)ncc23)[C@@H](C)C1 | -5.05 | 49 | 5.83 | 8.56 | 5.39 | 23 | – |
| C=C(F)C(=O)N1CCN(c2nc(=O)n(-c3c(C)ccnc3C(C)C)c3cc(-c4c(O)cccc4F)ncc23)[C@@H](C)C1 | 5.95 | 35 | 5.24 | 29.2 | 25.1 | 19 | – |
| C=CC(=O)N1CCN(c2nc(=O)n(-c3c(C)ccnc3C(C)C)c3nc4c(cc23)oc2ccc(F)cc24)[C@@H](C)C1 | 6.97 | 52.8 | 2.52 | 35.4 | 15.9 | 24.6 | IC50 (MIA PaCa-2 [9]): > 10 µM |
| C=CC(=O)N1CCN(c2nc(=O)n(-c3c(C)ccnc3C(C)C)c3nc4c(cc23)oc2cccc(F)c24)[C@@H](C)C1 | 2.22 | 48.7 | 7.06 | 19.3 | 35.3 | 28.6 | – |
| C=CC(=O)N1C2CCC1CN(c1nc(=O)n(-c3c(C)ccnc3C(C)C)c3nc4c(cc13)oc1cccc(F)c14)C2 | 9.32 | 53.2 | 4.85 | 14.5 | 8.58 | 35.7 | IC50 (MIA PaCa-2 [9]): > 10 µM |
| C=CC(=O)N1CCN(c2nc(=O)n(-c3c(C(C)C)cccc3C(C)C)c3c(F)c(-c4c(O)cccc4F)ncc23)[C@@H](C)C1 | – | – | – | – | – | – | IC50 [7]: > 10 µM; IC50 (GTPase KRas): > 10 µM |
| C=CC(=O)N1CCN(c2nc(=O)n(-c3c(C(C)C)ncnc3C(C)C)c3c(Cl)c(-c4c(O)cccc4F)ncc23)[C@@H](C)C1 | – | – | – | – | – | – | IC50 [7]: > 10 µM; IC50 (GTPase KRas): > 10 µM |
| C=C(C(=O)N1CCN(c2nc(=O)n(-c3c(C)ccnc3C(C)C)c3cc(-c4c(O)cccc4F)ncc23)[C@@H](C)C1)C(F)(F)F | 6.65 | 85.5 | 2.29 | 18.1 | 6.23 | 91.6 | – |
| CC#CC(=O)N1CCN(c2nc(=O)n(-c3c(C)ccnc3C(C)C)c3nc4c(cc23)oc2cccc(F)c24)[C@@H](C)C1 | 4.36 | 27.3 | -1.01 | 14.2 | 0.49 | 22.3 | – |
